Test results from patent publication US7220721B1, “Exendin agonist peptides” (Amylin Pharmaceuticals, Inc., priority 1997, dated 2007).
pEC50, pIC50: −log10 of the molar value.

How the values were obtained:
[1] = system: C57BLKS/J-m-db mice; assay: Determination of blood glucose levels in db/db mice; type: in vivo; settings: percent decrease in plasma glucose from baseline one hour after subcutaneous injection of 1 μg
[2] = target: cyclase (membranes); assay: Cyclase activation study (cAMP SPA immunoassay); type: biochemical; settings: cAMP in supernatant after 20 minutes incubation at 37° C. of membranes and peptides
Procedure: GLP-1[7–36]NH2 (GLP-1) was purchased from Bachem (Torrance, Calif.). All other peptides were prepared using synthesis methods such as those described therein. All chemicals were of the highest commercial grade. The cAMP SPA immunoassay was purchased from Amersham. The radioligands were purchased from New England Nuclear (Boston, Mass.). […] Cells were grown at 37° C. and 5% CO2/95% humidified air and medium was replaced every 2 to 3 days. Cells were grown to confluence then harvested and homogenized using on a Polytron homogenizer. Cell homogenates were stored frozen at −70° C. until used. Assay buffer contained 10 μM GTP, 0.75 mM ATP, 2.5 mM MgCl21 0.5 mM phosphocreatine, 12.5 U/ml creatine kinase, 0.4 mg/ml aprotinin, 1 μM IBMX in 50 mM HEPES, pH 7.4. Membranes and peptides were combined in […] of assay buffer in 96 well filter-bottom plates (Millipore Corp., Bedford, Mass.). […] Supernatant cAMP contents were quantitated by SPA immunoassay. […] The biological activity of a particular sample was expressed as an EC50 value, calculated as described above.

[3] = target: GLP-1 receptor (on RINm5f membranes) (UniProt P32301)
GLP-1 receptor (on RINm5f membranes), sequence (P32301 22-463 limits assumed): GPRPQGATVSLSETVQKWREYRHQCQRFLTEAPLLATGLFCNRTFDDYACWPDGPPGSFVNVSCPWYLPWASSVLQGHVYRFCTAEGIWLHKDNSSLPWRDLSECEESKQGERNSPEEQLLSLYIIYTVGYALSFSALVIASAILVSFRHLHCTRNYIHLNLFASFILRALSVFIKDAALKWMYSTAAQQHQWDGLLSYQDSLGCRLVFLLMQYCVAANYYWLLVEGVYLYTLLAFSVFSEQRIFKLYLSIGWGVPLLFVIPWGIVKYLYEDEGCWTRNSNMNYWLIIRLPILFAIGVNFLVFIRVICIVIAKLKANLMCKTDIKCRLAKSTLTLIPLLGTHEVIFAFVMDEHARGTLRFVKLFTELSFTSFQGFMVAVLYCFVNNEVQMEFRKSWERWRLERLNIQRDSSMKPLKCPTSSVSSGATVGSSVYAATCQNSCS

Row | Compound | pEC50 [2] | % drop in glucose [1] [%] | pIC50 [3]
1 | CC[C@H](C)[C@H](NC(=O)[C@H](Cc1ccccc1)NC(=O)[C@H](CC(C)C)NC(=O)[C@H](CCCNC(=N)N)NC(=O)[C@@H](NC(=O)[C@H](C)NC(=O)[C@H](CCC(=O)O)NC(=O)[C@H](CCC(=O)O)NC(=O)[C@H](CCC(=O)O)NC(=O)[C@H](CC(C)C)NC(=O)[C@H](CCC(N)=O)NC(=O)[C@H](CCCCN)NC(=O)[C@H](CO)NC(=O)[C@H](CC(C)C)NC(=O)[C@H](CC(=O)O)NC(=O)[C@H](CO)NC(=O)[C@@H](NC(=O)[C@H](Cc1ccccc1)NC(=O)[C@@H](NC(=O)CNC(=O)[C@H](C)NC(=O)CNC(=O)[C@@H](N)Cc1c[nH]cn1)[C@@H](C)O)[C@@H](C)O)C(C)C)C(=O)N[C@@H](CCC(=O)O)C(=O)N[C@@H](Cc1ccccc1)C(=O)N[C@@H](CC(C)C)C(=O)N[C@@H](CCCCN)C(=O)N[C@@H](CC(N)=O)C(N)=O [Compound 2] | < 5.00 | 41 | –
2 | CC[C@H](C)[C@H](NC(=O)[C@H](Cc1ccccc1)NC(=O)[C@H](CC(C)C)NC(=O)[C@H](CCCNC(=N)N)NC(=O)[C@@H](NC(=O)[C@H](C)NC(=O)[C@H](CCC(=O)O)NC(=O)[C@H](CCC(=O)O)NC(=O)[C@H](CCC(=O)O)NC(=O)[C@H](CC(C)C)NC(=O)[C@H](CCC(N)=O)NC(=O)[C@H](CCCCN)NC(=O)[C@H](CO)NC(=O)[C@H](CC(C)C)NC(=O)[C@H](CC(=O)O)NC(=O)[C@H](CO)NC(=O)[C@@H](NC(=O)[C@H](Cc1ccccc1)NC(=O)[C@@H](NC(=O)[C@H](C)NC(=O)[C@H](CCC(=O)O)NC(=O)CNC(=O)[C@@H](N)Cc1c[nH]cn1)[C@@H](C)O)[C@@H](C)O)C(C)C)C(=O)N[C@@H](CCC(=O)O)C(=O)N[C@@H](Cc1ccccc1)C(=O)N[C@@H](CC(C)C)C(=O)N[C@@H](CCCCN)C(=O)N[C@@H](CC(N)=O)C(N)=O [Compound 3] | < 5.00 | 32 | –
3 | Exendin-4 [SEQ. ID. NO. 2] (peptide) | – | – | 9.15

The next lines start with results.

Row | pEC50 [2] | Compound | % drop in glucose [1] [%] | pIC50 [3]
4 | < 6.00 | CC[C@H](C)[C@H](NC(=O)[C@H](Cc1ccccc1)NC(=O)[C@H](CC(C)C)NC(=O)[C@H](CCCNC(=N)N)NC(=O)[C@@H](NC(=O)[C@H](C)NC(=O)[C@H](CCC(=O)O)NC(=O)[C@H](CCC(=O)O)NC(=O)[C@H](CCC(=O)O)NC(=O)[C@H](CC(C)C)NC(=O)[C@H](CCC(N)=O)NC(=O)[C@H](CCCCN)NC(=O)[C@H](CO)NC(=O)[C@H](CC(C)C)NC(=O)[C@H](CC(=O)O)NC(=O)[C@H](CO)NC(=O)[C@@H](NC(=O)[C@H](Cc1ccccc1)NC(=O)[C@@H](NC(=O)CNC(=O)[C@H](CCC(=O)O)NC(=O)CNC(=O)[C@H](C)N)[C@@H](C)O)[C@@H](C)O)C(C)C)C(=O)N[C@@H](CCC(=O)O)C(=O)N[C@@H](Cc1ccccc1)C(=O)N[C@@H](CC(C)C)C(=O)N[C@@H](CCCCN)C(=O)N[C@@H](CC(N)=O)C(N)=O [Compound 1] | 40 | –
5 | < 5.00 | CC[C@H](C)[C@H](NC(=O)[C@H](Cc1ccccc1)NC(=O)[C@H](CC(C)C)NC(=O)[C@H](CCCNC(=N)N)NC(=O)[C@@H](NC(=O)[C@H](C)NC(=O)[C@H](CCC(=O)O)NC(=O)[C@H](CCC(=O)O)NC(=O)[C@H](CCC(=O)O)NC(=O)[C@H](CC(C)C)NC(=O)[C@H](CCC(N)=O)NC(=O)[C@H](CCCCN)NC(=O)[C@H](CO)NC(=O)[C@H](CC(C)C)NC(=O)[C@H](C)NC(=O)[C@H](CO)NC(=O)[C@@H](NC(=O)[C@H](Cc1ccccc1)NC(=O)[C@@H](NC(=O)CNC(=O)[C@H](CCC(=O)O)NC(=O)CNC(=O)[C@@H](N)Cc1c[nH]cn1)[C@@H](C)O)[C@@H](C)O)C(C)C)C(=O)N[C@@H](CCC(=O)O)C(=O)N[C@@H](Cc1ccccc1)C(=O)N[C@@H](CC(C)C)C(=O)N[C@@H](CCCCN)C(=O)N[C@@H](CC(N)=O)C(N)=O [Compound 4] | 42 | –
